From patent US8431563B2 (priority 2010, dated 2013)
pEC50, pIC50: −log10 of the molar value. Like-named read-outs stand apart in the source and are kept apart here.

What was measured:
[1] = target: T1, interaction between glucokinase (GK) and glucokinase regulatory protein (GKRP) (Homo sapiens, UniProt Q14397); test: biochemical; format: binding
T1 sequence (Q14397 1-625): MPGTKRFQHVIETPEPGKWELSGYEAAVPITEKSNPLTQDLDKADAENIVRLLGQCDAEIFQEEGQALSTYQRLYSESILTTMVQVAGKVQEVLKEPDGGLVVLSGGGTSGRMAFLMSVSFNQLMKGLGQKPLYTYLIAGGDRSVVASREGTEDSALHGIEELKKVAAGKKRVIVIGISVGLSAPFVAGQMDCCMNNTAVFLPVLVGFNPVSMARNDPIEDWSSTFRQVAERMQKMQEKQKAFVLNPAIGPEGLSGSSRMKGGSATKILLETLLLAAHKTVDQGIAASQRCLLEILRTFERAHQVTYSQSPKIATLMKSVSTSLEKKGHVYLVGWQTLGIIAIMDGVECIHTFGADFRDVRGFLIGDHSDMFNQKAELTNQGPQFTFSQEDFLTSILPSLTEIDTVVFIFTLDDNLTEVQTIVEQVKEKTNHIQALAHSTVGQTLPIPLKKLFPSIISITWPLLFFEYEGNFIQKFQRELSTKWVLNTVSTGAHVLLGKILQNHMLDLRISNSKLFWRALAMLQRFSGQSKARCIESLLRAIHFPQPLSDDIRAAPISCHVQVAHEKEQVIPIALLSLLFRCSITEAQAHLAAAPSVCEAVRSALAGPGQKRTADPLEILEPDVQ
In short: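 Avi-tagged human GKRP preincubated with compound for 20 min at room temperature, then 6 nM GK-fluorescein (concentration of added solution) introduced and incubated 2 h in the dark. Buffer: 20 mM Tris pH 7.5, 0.05% BSA, 1 mM DTT, 1 μM sorbitol-6-phosphate. Plate read on a fluorescence reader.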

[2] = target: T2, GKRP (Glucokinase Regulatory Protein) with human His-hepatic GK (Homo sapiens, UniProt Q14397); test: biochemical
T2 sequence (Q14397 1-625): T1 sequence (Q14397 1-625)
In short: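 Human His-tagged hepatic GK (30 nM in the 5× working stock) in 50 mM Tris pH 7.5, 4 mM MgCl2, 6% DMSO with DTT, BSA and Brij-35. Enzyme was added after a 30 min step and reacted 30 min at room temperature. The reaction was stopped with acetonitrile and 13C-glucose-6-phosphate formed from 13C-glucose was quantified by LC MS/MS.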

[3] = avi-tagged GKRP, GK-fluorescein, AlphaScreen beads, read-out: GK-GKRP IC50 (Binding)
[4] = 13C-glucose-6-phosphate formation, 280 nM GKRP (10×), 30 nM GK (5×), read-out: GK-GKRP EC50 (LC MS/MS-2)

SMILES | pIC50 [1, 3] | pEC50 [2, 4] | also measured
Nc1ccc(S(=O)(=O)N2CCN(c3ccc(C(O)(C(F)(F)F)C(F)(F)F)cc3)CC2)s1 [Example 88, 2-(4-(4-((5-amino-2-thiophenyl)sulfonyl)-1-piperazinyl)phenyl)-1,1,1,3,3,3-hexafluoro-2-propanol] | 6.52 | 6.82 | –
C[C@H]1CN(S(=O)(=O)c2ccc(N)s2)CCN1c1ncc(C(O)(C(F)(F)F)C(F)(F)F)cn1 [Example 89, 2-(2-((2S)-4-((5-amino-2-thiophenyl)sulfonyl)-2-methyl-1-piperazinyl)-5-pyrimidinyl)-1,1,1,3,3,3-hexafluoro-2-propanol] | 6.60 | 6.79 | –
Nc1ccc(S(=O)(=O)N2CCN(c3ncc(C(O)(C(F)(F)F)C(F)(F)F)cn3)[C@@H](CN3C4COCC3CC(=O)C4)C2)s1 [Example 98 nonan-7-one, 9-(((2S)-4-((5-amino-2-thiophenyl)sulfonyl)-1-(5-(2,2,2-trifluoro-1-hydroxy-1-(trifluoromethyl)ethyl)-2-pyrimidinyl)-2-piperazinyl)methyl)-3-oxa-9-azabicyclo[3.3.1]nonan-7-one] | – | – | pIC50 ([1]; GK-GKRP IC50 (Binding), avi-tagged GKRP, GK-fluorescein, AlphaScreen beads): 7.80; pEC50 ([2]; GK-GKRP EC50 (LC MS/MS-2), 13C-glucose-6-phosphate formation, 280 nM GKRP (10×), 30 nM GK (5×)): 7.40
CC(C)N(C[C@H]1CN(S(=O)(=O)c2ccc(N)s2)CCN1c1ncc(C(O)(C(F)(F)F)C(F)(F)F)cn1)S(C)(=O)=O [Example 231, N-(((2R)-4-((5-amino-2-thiophenyl)sulfonyl)-1-(5-(2,2,2-trifluoro-1-hydroxy-1-(trifluoromethyl)ethyl)-2-pyrimidinyl)-2-piperazinyl)methyl)-N-(1-methylethyl)methanesulfonamide] | 8.15 | 7.70 | –
CC(O)(c1ccc(N2CCN(S(=O)(=O)c3cccs3)C[C@@H]2CN2CCOCC2CNS(C)(=O)=O)cc1)C(F)(F)F (single isomer, unassigned) [Example 112 Peak #2] | – | – | pIC50 ([1]; GK-GKRP IC50 (Binding)): 6.68; pEC50 ([2]; GK-GKRP EC50 (LC MS/MS-2)): 6.48
CCOC(=O)CC1COCCN1C[C@H]1CN(S(=O)(=O)c2cccs2)CCN1c1ccc(C(C)(O)C(F)(F)F)cc1 (mixture of isomers) [Example 113] | 6.48 | 6.51 | –
CC(O)(c1ccc(N2CCN(S(=O)(=O)c3cccs3)C[C@@H]2C[S+]([O-])c2ccc(F)cc2)cc1)C(F)(F)F (single isomer, unassigned) [Example 191 Peak#2] | 6.37 | 6.60 | –
CC(O)(c1cnc(N2CCN(S(=O)(=O)c3ccc(N)nc3)C[C@@H]2CC2CCOCC2)nc1)C(F)(F)F (mixture of isomers) [Example 131] | 6.91 | 6.99 | –
CCC(C#Cc1cc(C(O)(C(F)(F)F)C(F)(F)F)ccc1N1CCC(S(=O)(=O)c2ccccc2)CC1)OC (racemic) [Example 163, 1,1,1,3,3,3-hexafluoro-2-(3-(3-methoxypent-1-ynyl)-4-(4-(phenylsulfonyl)piperidin-1-yl)phenyl)-2-propanol] | 6.22 | 6.09 | –
CC(O)(c1ccc(N2CCN(S(=O)(=O)c3cccs3)C[C@@H]2CS(=O)(=O)c2ccccc2)cc1)C(F)(F)F (single isomer, unassigned) [Example 187 Peak#1] | 7.39 | 7.31 | –
CC1(C)C(=O)NCCN1C[C@H]1CN(S(=O)(=O)c2cccs2)CCN1c1ccc(C(C)(O)C(F)(F)F)cc1 (mixture of isomers) [Example 180, 3,3-dimethyl-4-(((2S)-4-(2-thiophenylsulfonyl)-1-(4-(2,2,2-trifluoro-1-hydroxy-1-methylethyl)phenyl)-2-piperazinyl)methyl)-2-piperazinone] | 7.66 | 7.29 | –
O=S(=O)(c1cccs1)N1CCN(c2ccc(C(O)(C(F)(F)F)C(F)(F)F)cc2)C(Cc2ccccc2O)C1 (racemic) [Example 178, 2-((1-(4-(1,1,1,3,3,3-hexafluoro-2-hydroxypropan-2-yl)phenyl)-4-(thiophen-2-ylsulfonyl)piperazin-2-yl)methyl)phenol] | 6.77 | 7.08 | –
CC(C)CS(=O)(=O)N(C[C@H]1CN(S(=O)(=O)c2cccs2)CCN1c1ccc(C(C)(O)C(F)(F)F)cc1)c1ccccc1 (mixture of isomers) [Example 211, 2-methyl-N-phenyl-N-(((2R)-4-(2-thiophenylsulfonyl)-1-(4-(2,2,2-trifluoro-1-hydroxy-1-methylethyl)phenyl)-2-piperazinyl)methyl)-1-propanesulfonamide] | 8.22 | 7.70 | –
CS(=O)(=O)NCC#Cc1cc(C(O)(C(F)(F)F)C(F)(F)F)ccc1N1CCN(S(=O)(=O)c2cccs2)CC1 [Example 160, N-(3-(2-(4-(2-thiophenylsulfonyl)-1-piperazinyl)-5-(2,2,2-trifluoro-1-hydroxy-1-(trifluoromethyl)ethyl)phenyl)-2-propyn-1-yl)methanesulfonamide] | 6.11 | 6.39 | –
CC(O)(c1ccc(N2CCN(S(=O)(=O)c3cccs3)C[C@@H]2CN2C3COCC2C(O)C3)cc1)C(F)(F)F (single isomer, unassigned; peak #1) [Example 77 Peak #1] | 7.89 | 7.42 | –
C[C@H]1COCCN1C[C@H]1CN(S(=O)(=O)c2ccc(N)nc2)CCN1c1ccc(C(C)(O)C(F)(F)F)cc1 (mixture of isomers) [Example 125, 2-(4-((2S)-4-((6-amino-3-pyridinyl)sulfonyl)-2-(((3S)-3-methyl-4-morpholinyl)methyl)-1-piperazinyl)phenyl)-1,1,1-trifluoro-2-propanol] | 8.52 | 7.70 | –
CC(C)CN(C[C@H]1CN(S(=O)(=O)c2cccs2)CCN1c1ccc(C(C)(O)C(F)(F)F)cc1)S(=O)(=O)N(C)C (mixture of isomers) [Example 215, N,N-dimethyl-N′-(2-methylpropyl)-N′-(((2R)-4-(2-thiophenylsulfonyl)-1-(4-(2,2,2-trifluoro-1-hydroxy-1-methylethyl)phenyl)-2-piperazinyl)methyl)sulfamide] | 7.15 | 7.15 | –
CC(O)(c1ccc(N2CCN(S(=O)(=O)c3cccs3)C[C@@H]2CN2C3COCC2C(O)C3)cc1)C(F)(F)F (single isomer, unassigned) [Example 78 Peak #1] | 7.36 | 6.84 | –
CC(O)(c1ccc(N2CCN(S(=O)(=O)c3cccs3)C[C@@H]2CN2C3COCC2C(O)C3)cc1)C(F)(F)F (single isomer, unassigned) [Example 78 Peak #2] | 7.31 | 7.22 | –
CC(O)(c1ccc(N2CCN(S(=O)(=O)c3ccc(N)s3)C[C@@H]2Cc2ccccc2)cc1)C(F)(F)F (mixture of isomers) [Example 136, 2-(4-((2S)-4-((5-amino-2-thiophenyl)sulfonyl)-2-benzyl-1-piperazinyl)phenyl)-1,1,1-trifluoro-2-propanol] | 6.60 | 6.84 | –
